Reference: patent US20060281071A1, “Stearoyl-CoA desaturase assay” (priority 2005, published 2006)
Where “and” joins values, the source holds several entries; their conditions need not be identical. Identical values can stand only once. Like-named read-outs stand apart in the source and are kept apart here.

Assays:
hSCD1 = target: T1, hSCD1 (Homo sapiens, UniProt O00767); test: Conversion of saturated fatty acids to Δ9 monounsaturated fatty acids in ole1 yeast L8-14C expressing hSCD1 (GLC); assay type: cell-based; design: Cloning of the full-length human and mouse SCD cDNAs: The full coding region of human SCDs; expressed in transfected cells; host or cells: Saccharomyces cerevisiae L8-14C (ole1 disruptant), vector p426GPD; conditions: for conversion of exogenous saturated fatty acid to Δ9 monounsaturated fatty acid: exogenous fatty acid 0.2 mM, 1% tergitol NP-40, yeast cultured 2 days (FIG. 2); for % conversion of fatty acid to Δ9 monounsaturated fatty acid: endogenous fatty acid, L8-14C transformant, YPD lacking unsaturated fatty acids, 3 days
T1 sequence (O00767 1-359): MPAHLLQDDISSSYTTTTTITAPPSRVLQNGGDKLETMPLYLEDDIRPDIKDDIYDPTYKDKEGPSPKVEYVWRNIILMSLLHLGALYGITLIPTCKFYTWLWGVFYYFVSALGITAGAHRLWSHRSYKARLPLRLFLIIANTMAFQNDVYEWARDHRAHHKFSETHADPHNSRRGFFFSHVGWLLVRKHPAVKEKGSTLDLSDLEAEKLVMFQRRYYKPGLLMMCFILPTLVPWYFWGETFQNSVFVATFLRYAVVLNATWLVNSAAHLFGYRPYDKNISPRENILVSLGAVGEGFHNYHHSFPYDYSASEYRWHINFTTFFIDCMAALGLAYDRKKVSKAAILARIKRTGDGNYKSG

mSCD4 = test: Conversion of saturated fatty acids to Δ9 monounsaturated fatty acids in ole1 yeast L8-14C expressing mSCD4 (GLC); assay type: cell-based, mouse; conditions: for conversion of exogenous saturated fatty acid to Δ9 monounsaturated fatty acid: exogenous fatty acid 0.2 mM, 1% tergitol NP-40, yeast cultured 2 days (FIG. 2); for % conversion of fatty acid to Δ9 monounsaturated fatty acid: endogenous fatty acid, L8-14C transformant, YPD lacking unsaturated fatty acids, 3 days
Text: (§1) Functional Analysis: The p426GPD constructs harboring either human or mouse SCDs were transformed into Saccharomyces cerevisiae strain L8-14C (provided by Professor Charles Martin, Division of Life Sciences, Department of Cell Biology and Neuroscience, Rutgers University, Nelson Laboratories), which contains a disruption of the yeast Δ9-desaturase gene ole1 and requires unsaturated fatty acids for growth (Stukey, J. E. et al. (1990) J Biol Chem 265, 20144-20149), by using a Lithium acetate standard methods (Elble, R. (1992) Biotechniques 13, 18-20). The transformed yeast cells were plated onto a synthetic dextrose medium containing 1% tergitol NP-40, 0.5 mM oleic acid, and 0.5 mM palmitoleic acid but lacking uracil. To test the genetic complementation of the mutant yeast strain, transformed yeast cells were plated onto YPD (Yeast Extract/Peptone/Dextrose) medium lacking unsaturated fatty acids. Plates were incubated at 30° C. for 3 days.
(§2) Cells were pelleted and washed twice with water, followed by suspension in 0.5 ml of 2M NaOH in methanol. The mixture was then heated to 80° C. for 1 h and acidified with formic acid. Fatty acids were extracted according to Bligh & Dyer's method and trans-methylated with 1 ml of 14% BF3 in methanol (Sigma). The resulting fatty acid methyl esters were extracted with hexane and analyzed by gas-liquid chromatography (GLC) (Miyazaki, M. et al. (2001) J Biol Chem 276, 39455-39461; and Elble, R. (1992) Biotechniques 13, 18-20). The double bond positions of the monounsaturated fatty acid pyrrolidide derivatives were analyzed by tandem GC-MS as described in Miyazaki, M. et al. (2002) J Lipid Res 43, 2146-2154, incorporated by reference in its entirety. Exogenous saturated fatty acids (0.2 mM) were added into YPD in presence of 1% Tergitol NP-40 (Sigma).

mSCD2 = target: T2, mSCD2 (Mus musculus, UniProt P13011); test: Conversion of saturated fatty acids to Δ9 monounsaturated fatty acids in ole1 yeast L8-14C expressing mSCD2 (GLC); assay type: cell-based; design: Cloning of the full-length human and mouse SCD cDNAs: The full coding region of human SCDs; expressed in transfected cells; host or cells: Saccharomyces cerevisiae L8-14C (ole1 disruptant), vector p426GPD; conditions: for conversion of exogenous saturated fatty acid to Δ9 monounsaturated fatty acid: exogenous fatty acid 0.2 mM, 1% tergitol NP-40, yeast cultured 2 days (FIG. 2); for % conversion of fatty acid to Δ9 monounsaturated fatty acid: endogenous fatty acid, L8-14C transformant, YPD lacking unsaturated fatty acids, 3 days
T2 sequence (P13011 1-358): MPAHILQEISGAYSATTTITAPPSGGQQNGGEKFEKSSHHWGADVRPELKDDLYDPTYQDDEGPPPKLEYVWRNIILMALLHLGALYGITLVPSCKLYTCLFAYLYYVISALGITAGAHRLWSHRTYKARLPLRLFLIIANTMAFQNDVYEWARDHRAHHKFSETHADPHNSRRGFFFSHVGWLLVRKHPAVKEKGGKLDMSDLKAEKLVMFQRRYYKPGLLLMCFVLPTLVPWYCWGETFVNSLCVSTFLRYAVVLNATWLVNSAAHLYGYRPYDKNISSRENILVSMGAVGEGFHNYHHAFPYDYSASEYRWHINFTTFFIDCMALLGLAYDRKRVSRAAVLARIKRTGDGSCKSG

mSCD1 = target: T3, mSCD1 (Mus musculus, UniProt P13516); test: Conversion of saturated fatty acids to Δ9 monounsaturated fatty acids in ole1 yeast L8-14C expressing mSCD1 (GLC); assay type: cell-based; design: Cloning of the full-length human and mouse SCD cDNAs: The full coding region of human SCDs; expressed in transfected cells; host or cells: Saccharomyces cerevisiae L8-14C (ole1 disruptant), vector p426GPD; conditions: for conversion of exogenous saturated fatty acid to Δ9 monounsaturated fatty acid: exogenous fatty acid 0.2 mM, 1% tergitol NP-40, yeast cultured 2 days (FIG. 2); for % conversion of fatty acid to Δ9 monounsaturated fatty acid: endogenous fatty acid, L8-14C transformant, YPD lacking unsaturated fatty acids, 3 days
T3 sequence (P13516 1-355): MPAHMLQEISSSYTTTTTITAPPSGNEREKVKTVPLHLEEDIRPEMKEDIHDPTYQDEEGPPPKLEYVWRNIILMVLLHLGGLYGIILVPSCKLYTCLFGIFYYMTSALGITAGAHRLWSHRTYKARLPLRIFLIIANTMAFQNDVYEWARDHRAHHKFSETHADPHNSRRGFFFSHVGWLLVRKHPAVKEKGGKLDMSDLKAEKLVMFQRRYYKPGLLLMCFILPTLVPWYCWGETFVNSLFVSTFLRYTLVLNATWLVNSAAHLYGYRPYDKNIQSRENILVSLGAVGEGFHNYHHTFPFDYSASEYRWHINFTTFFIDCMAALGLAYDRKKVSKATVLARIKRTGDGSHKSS

hSCD5 = target: T4, hSCD5 (Homo sapiens, UniProt Q86SK9); test: Conversion of saturated fatty acids to Δ9 monounsaturated fatty acids in ole1 yeast L8-14C expressing hSCD5 (GLC); assay type: cell-based; design: Cloning of the full-length human and mouse SCD cDNAs: The full coding region of human SCDs; expressed in transfected cells; host or cells: Saccharomyces cerevisiae L8-14C (ole1 disruptant), vector p426GPD; conditions: for % conversion of fatty acid to Δ9 monounsaturated fatty acid: endogenous fatty acid, L8-14C transformant, YPD lacking unsaturated fatty acids, 3 days
T4 sequence (Q86SK9 1-330): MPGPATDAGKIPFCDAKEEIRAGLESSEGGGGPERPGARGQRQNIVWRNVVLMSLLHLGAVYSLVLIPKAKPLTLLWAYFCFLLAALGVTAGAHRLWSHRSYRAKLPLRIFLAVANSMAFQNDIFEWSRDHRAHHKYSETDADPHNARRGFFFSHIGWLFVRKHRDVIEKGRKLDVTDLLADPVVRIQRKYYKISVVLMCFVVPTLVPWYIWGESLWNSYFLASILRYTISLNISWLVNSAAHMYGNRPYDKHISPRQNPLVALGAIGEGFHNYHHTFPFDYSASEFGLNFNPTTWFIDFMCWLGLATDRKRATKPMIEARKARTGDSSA
Text: as §1
as §2, with “Fatty acid analysis: Yeast cells were grown in liquid YPD medium lacking unsaturated fatty acids for 3 days. Cells” for “Cells”

mSCD3 = target: T5, mSCD3 (Mus musculus, UniProt Q99PL7, V119A); test: Conversion of saturated fatty acids to Δ9 monounsaturated fatty acids in ole1 yeast L8-14C expressing mSCD3 (GLC); assay type: cell-based; design: Cloning of the full-length human and mouse SCD cDNAs: The full coding region of human SCDs; expressed in transfected cells; host or cells: Saccharomyces cerevisiae L8-14C (ole1 disruptant), vector p426GPD
T5 sequence (Q99PL7 1-359 V119A): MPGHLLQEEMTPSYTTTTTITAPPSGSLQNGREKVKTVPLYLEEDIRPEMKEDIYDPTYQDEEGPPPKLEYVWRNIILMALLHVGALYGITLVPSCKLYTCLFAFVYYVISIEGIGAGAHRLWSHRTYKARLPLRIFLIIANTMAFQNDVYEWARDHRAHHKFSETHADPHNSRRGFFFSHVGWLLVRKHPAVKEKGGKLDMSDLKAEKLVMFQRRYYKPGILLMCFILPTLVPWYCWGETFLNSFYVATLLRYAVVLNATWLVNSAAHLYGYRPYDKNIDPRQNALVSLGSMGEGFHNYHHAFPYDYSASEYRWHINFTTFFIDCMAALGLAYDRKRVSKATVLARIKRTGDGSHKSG

[1] = exogenous fatty acid 0.2 mM, 1% tergitol NP-40, yeast cultured 2 days (FIG. 2)
[2] = yeast transformant, endogenous fatty acids

CCCCCCCCCCCCCC(=O)O [14:0, myristic acid]
conversion of exogenous saturated fatty acid to Δ9 monounsaturated fatty acid (hSCD1): 18%
conversion of exogenous saturated fatty acid to Δ9 monounsaturated fatty acid (mSCD4): 2.9%
conversion of exogenous saturated fatty acid to Δ9 monounsaturated fatty acid (mSCD2): 14%
conversion of exogenous saturated fatty acid to Δ9 monounsaturated fatty acid (mSCD1): 11%
conversion of exogenous saturated fatty acid to Δ9 monounsaturated fatty acid (hSCD5; [1]): less than 5%

CCCCCCCCCCCCCCCCC(=O)O [17:0, heptadecanoic acid]
conversion of exogenous saturated fatty acid to Δ9 monounsaturated fatty acid (hSCD1): 35%
conversion of exogenous saturated fatty acid to Δ9 monounsaturated fatty acid (mSCD4): 5.7%
conversion of exogenous saturated fatty acid to Δ9 monounsaturated fatty acid (mSCD2): 31%
conversion of exogenous saturated fatty acid to Δ9 monounsaturated fatty acid (mSCD1): 43%
conversion of exogenous saturated fatty acid to Δ9 monounsaturated fatty acid (hSCD5; [1]): 31%

CCCCCCCCCCCCCCCCCC(=O)O [18:0]
% conversion of fatty acid to Δ9 monounsaturated fatty acid (hSCD1): 75.0%
conversion towards 18:0 relative to 16:0 (hSCD1; [2]): 1.7 fold
% conversion of fatty acid to Δ9 monounsaturated fatty acid (mSCD4): 16.8%
% conversion of fatty acid to Δ9 monounsaturated fatty acid (mSCD2): 77% and 77.3%
% conversion of fatty acid to Δ9 monounsaturated fatty acid (mSCD1): 85% and 84.8%
% conversion of fatty acid to Δ9 monounsaturated fatty acid (hSCD5): 86.6%
conversion of 18:0 to 18:1Δ9 relative to that of 16:0 (hSCD5; [2]): more than 4 fold

CCCCCCCCCCCCCCCCCCCC(=O)O [C20:0, eicosanoic acid]
conversion of exogenous saturated fatty acid to Δ9 monounsaturated fatty acid (hSCD1): None of Δ9-desaturase was able to utilize
conversion of exogenous saturated fatty acid to Δ9 monounsaturated fatty acid (mSCD4): None of Δ9-desaturase was able to utilize
conversion of exogenous saturated fatty acid to Δ9 monounsaturated fatty acid (mSCD2): None of Δ9-desaturase was able to utilize
conversion of exogenous saturated fatty acid to Δ9 monounsaturated fatty acid (mSCD1): None of Δ9-desaturase was able to utilize
conversion of exogenous saturated fatty acid to Δ9 monounsaturated fatty acid (hSCD5; [1]): None of Δ9-desaturase was able to utilize

CCCCCCCCCCCC(=O)O [12:0, lauric acid]
conversion of exogenous saturated fatty acid to Δ9 monounsaturated fatty acid (mSCD3): 14%
conversion of exogenous saturated fatty acid to Δ9 monounsaturated fatty acid (hSCD5): did not desaturate

CCCCCCCCCCCCCCCC(=O)O [16:0]
% conversion of fatty acid to Δ9 monounsaturated fatty acid (hSCD1): 43.8%
% conversion of fatty acid to Δ9 monounsaturated fatty acid (mSCD4): 9.7%
% conversion of fatty acid to Δ9 monounsaturated fatty acid (mSCD2): 51.4%
% conversion of fatty acid to Δ9 monounsaturated fatty acid (mSCD1): 36.4%
% conversion of fatty acid to Δ9 monounsaturated fatty acid (hSCD5): 19.9%

CCCCCCCCCCCCC(=O)O [13:0, tridecanoic acid]
conversion of exogenous saturated fatty acid to Δ9 monounsaturated fatty acid (hSCD1): 9%
conversion of exogenous saturated fatty acid to Δ9 monounsaturated fatty acid (mSCD2): 14%
conversion of exogenous saturated fatty acid to Δ9 monounsaturated fatty acid (mSCD1): 13%
conversion of exogenous saturated fatty acid to Δ9 monounsaturated fatty acid (hSCD5; [1]): did not desaturate
